Data reported in the supplement of paper PMC8882468.

Key:
Assay in all cases: CTG-3D luminescence at 96 h relative to day-0 seeding control (ratio to day 0); higher = more growth / less cytotoxicity; PDxO 3D drug screen, 96 h, CTG-3D normalised to day-0 seeding control.
[1] = tested on: HCI-010 (organoid from a breast cancer xenograft)
[2] = tested on: HCI-001 (organoid from a triple-negative breast cancer xenograft)
[3] = tested on: HCI-016 (organoid from a triple-negative breast cancer xenograft)
[4] = tested on: HCI-003.E2 (organoid from an ER-positive breast cancer xenograft)

CNC(=O)c1cccc(-c2ccc3c(N4CCOC[C@@H]4C)nc(N4CCOC[C@@H]4C)nc3n2)c1 [vistusertib]
CTG-3D luminescence at 96 h
Settings	12.5 pM	0.00025 µM	0.005 µM	0.1 µM	1 µM	10 µM	100 µM	625 fM
[1], days in culture: 52	2.1	2.32	2.14	1.57	0.904	0.76	0.17	2.19
[1], days in culture: 65	1.67	1.73	1.69	1.14	0.708	0.543	0.0432	1.68
[1], days in culture: 103	3.33	3.37	3.25	1.95	1.51	1.24	0.419	3.04
[2], days in culture: 240	1.6	1.12	0.733	0.68	0.589	0.404	0.27	1.82
[2], days in culture: 260	2.82	1.1	1.62	1.31	0.501	0.89	0.406	1.23
[2], days in culture: 269	1.63	1.62	1.55	1.03	0.524	0.533	0.378	1.6
[2], days in culture: 327	1.63	1.59	1.68	1.5	1.09	0.485	0.721	1.93
[2], days in culture: 346	1.29	1.31	1.14	0.926	0.641	0.549	0.566	1.28
[2], days in culture: 364	1.51	1.3	1.38	0.795	0.495	0.606	0.601	1.78
[3], days in culture: 153	2.83	1.97	2.44	1.36	1.01	1.52	0.486	1.72
[3], days in culture: 172	2.41	1.96	1.67	1.67	0.7	0.422	0.424	1.42
[3], days in culture: 190	1.92	1.44	1.77	1.19	0.838	0.424	0.374	1.44
[3], days in culture: 199	1.72	1.65	1.77	1.76	0.654	0.556	0.348	1.81

[4]
Settings	CTG-3D luminescence at 96 h
12.5 pM	2.24
0.00025 µM	2.07
0.005 µM	2.3
0.1 µM	1.4
1 µM	0.0994
10 µM	0.0512
100 µM	0.0137
625 fM	2.1

C[C@]12CC[C@@H]3c4ccc(O)cc4C[C@@H](CCCCCCCCC[S+]([O-])CCCC(F)(F)C(F)(F)F)[C@H]3[C@@H]1CC[C@@H]2O (stereo partly drawn) [fulvestrant]
CTG-3D luminescence at 96 h
Settings	12.5 pM	0.00025 µM	0.005 µM	0.1 µM	1 µM	10 µM	100 µM	625 fM
[1], days in culture: 52	2.11	2.41	2.26	2.46	2.2	2.56	1.97	2.06
[1], days in culture: 65	1.66	1.76	1.86	1.82	1.96	1.86	1.66	1.76
[1], days in culture: 103	3.27	3.34	3.47	3.46	3.26	3.15	2.99	3.29
[2], days in culture: 240	1.44	1.04	1.03	0.906	1.68	1.06	1.55	1.65
[2], days in culture: 260	2.56	1.23	1.9	1.86	1.59	1.46	1.1	1.68
[2], days in culture: 269	1.44	1.59	1.41	1.34	1.45	1.7	1.69	1.43
[2], days in culture: 327	1.73	1.68	2.18	1.97	1.64	1.23	1.65	2.08
[2], days in culture: 346	1.34	1.3	1.11	1.33	1.42	1.16	1.38	1.11
[2], days in culture: 364	1.63	1.34	1.37	0.918	0.954	1.28	1.02	1.75
[3], days in culture: 153	2.93	2.2	2.24	2.05	2.08	2.62	1.86	2.61
[3], days in culture: 172	2.46	1.77	1.97	1.54	1.72	1.14	1.63	1.6
[3], days in culture: 190	1.79	1.54	1.85	1.28	1.3	0.96	1.07	1.14
[3], days in culture: 199	1.92	2.05	1.9	1.67	2.19	1.62	1.44	2.07

[4]
Settings	CTG-3D luminescence at 96 h
12.5 pM	2.4
0.00025 µM	2.42
0.005 µM	2.09
0.1 µM	2.42
1 µM	1.9
10 µM	1.54
100 µM	1.41
625 fM	2.03

CC1(C)CCC(c2ccc(Cl)cc2)=C(CN2CCN(c3ccc(C(=O)NS(=O)(=O)c4ccc(N[C@H](CCN5CCOCC5)CSc5ccccc5)c(S(=O)(=O)C(F)(F)F)c4)cc3)CC2)C1 [navitoclax]
CTG-3D luminescence at 96 h
Settings	12.5 pM	0.00025 µM	0.005 µM	0.1 µM	1 µM	10 µM	100 µM	625 fM
[1], days in culture: 52	2.01	2.27	2.15	0.695	0.0507	0.0304	0.0084	2.13
[1], days in culture: 65	1.61	1.66	1.65	0.573	0.026	0.0135	0.00305	1.8
[1], days in culture: 103	3.2	3.28	3.13	1.08	0.0477	0.0368	0.0191	2.7
[2], days in culture: 240	1.51	1.07	0.955	1.53	1.1	0.369	0.0412	1.73
[2], days in culture: 260	2.66	1.09	1.83	1.92	1.58	0.642	0.0822	1.64
[2], days in culture: 269	1.8	1.73	1.37	1.38	0.942	0.889	0.124	1.67
[2], days in culture: 327	2.11	1.59	2.17	1.48	0.963	0.0556	-0.168	2.04
[2], days in culture: 346	1.64	1.22	1.38	1.24	1.3	0.577	0.00509	1.3
[2], days in culture: 364	1.67	1.16	1.61	1.17	1.17	0.802	0.00601	1.63
[3], days in culture: 153	3.08	1.54	2.11	1.77	1.76	0.105	0.000169	3.01
[3], days in culture: 172	2.29	2.07	1.85	1.43	1.55	0.931	0.00877	1.68
[3], days in culture: 190	2.07	1.62	1.9	1.65	1.46	1.1	0.0887	1.24
[3], days in culture: 199	2.03	2.16	2.22	1.82	2.1	0.827	0.0061	1.99

[4]
Settings	CTG-3D luminescence at 96 h
12.5 pM	1.98
0.00025 µM	2.09
0.005 µM	1.64
0.1 µM	2.22
1 µM	1.78
10 µM	1.12
100 µM	0.0236
625 fM	1.76

CCN(c1cc(C#CCN2CCOCC2)cc(C(=O)NCc2c(C)cc(C)[nH]c2=O)c1C)[C@H]1CC[C@H](N(C)CCOC)CC1
CTG-3D luminescence at 96 h
Settings	12.5 pM	0.00025 µM	0.005 µM	0.1 µM	1 µM	10 µM	100 µM	625 fM
[1], days in culture: 52	1.83	2.5	2.34	2.47	2.48	2.29	1.5	2.03
[1], days in culture: 65	1.6	1.76	1.72	1.49	1.78	1.58	1.05	1.8
[1], days in culture: 103	3.17	3.22	3.07	3.35	3.09	2.84	1.88	2.7
[2], days in culture: 240	1.66	1.2	1.34	1.12	1.48	1.35	1.6	1.15
[2], days in culture: 260	2.3	1.19	2.11	1.83	1.85	1.89	1.19	1.77
[2], days in culture: 269	1.6	1.57	1.22	1.27	1.24	1.91	1.29	1.58
[2], days in culture: 327	2.1	1.96	2.09	1.94	1.79	1.53	2.14	2.05
[2], days in culture: 346	1.71	1.33	1.21	1.4	1.5	1.62	1	1.32
[2], days in culture: 364	1.74	1.34	1.76	1.19	1.17	1.85	1.41	1.88
[3], days in culture: 153	2.92	1.14	2.22	1.64	2.25	2.06	1.5	3.1
[3], days in culture: 172	2.13	2.17	1.72	1.56	2.1	1.64	1.52	1.33
[3], days in culture: 190	2.02	1.67	1.75	1.5	1.73	1.62	1.56	1.36
[3], days in culture: 199	1.74	2.22	2.22	1.86	2.01	1.95	2.02	2.09

[4]
Settings	CTG-3D luminescence at 96 h
12.5 pM	1.84
0.00025 µM	2.12
0.005 µM	1.71
0.1 µM	1.96
1 µM	1.74
10 µM	1.89
100 µM	0.658
625 fM	1.65
